In one assay the test system is Collagen 1A1 (COL1A1). In words: mRNA expression of COL1A1 in fibroblasts treated with culture supernatant from three-dimensional cultured epidermis (Example 2, real time PCR). It is filed as cell-based, human. The conditions noted are these: three-dimensional cultured epidermis treated with CMP, 2Na 1.0, 2.0 w/v %; supernatant on fibroblasts; GAPDH endogenous control. Here is the method:
Similarly, the mRNA expression levels of Collagen 1A1 (COL1A1), a factor related to type I collagen synthesis, were quantified by real-time PCR.
(§1) Three-dimensional cultured epidermis (LabCyte EPI MODEL 24; manufactured by J TEC) was set in a 24-well plate to which 500 μL of the attached assay medium was added, and conditioned overnight at 37° C. 50 μL of sample-containing PBS (-) was applied from the stratum corneum side and cultured for 24 hours. After removing the sample-containing PBS (-), the plate was washed with PBS (-). The medium was replaced with a fresh medium, 50 μL of sample-containing PBS (-) was newly applied from the stratum corneum side, and further cultured for 48 hours. After culturing, the culture supernatant was collected. The concentrations of CMP, 2Na in the respective samples were 0, 1.0, and 2.0 (w/v %), respectively.
Normal human fibroblasts were treated with the culture supernatant by the same method as that of Example 1. RNA was extracted from NHDF using RNeasy Mini Kit (QIAGEN), and mRNA expression analysis for collagen 1A1 (COL1A1) was performed by real time PCR ([…]). Glyceraldehyde 3-phosphate dehydrogenase (GAPDH) was used as an endogenous control.
A general note: In qPCR the cycle at which signal appears reflects the starting amount.

Assay [1] deals with Normal human fibroblasts (NHDF). In words: Type I collagen production by normal human fibroblasts directly treated with sample (Example 3, ELISA). It is filed as cell-based. The note with it: direct treatment of normal human fibroblasts with 1.25, 2.5, 5 mM sample, 24 hours. As to the method: (§2) The effects of promoting collagen production for pyrimidine nucleotides were then evaluated with the culture supernatant from normal human epidermal cells and with fibroblasts. In this evaluation, the effects were compared for the case where the fibroblasts were directly treated with pyrimidine nucleotides and the case where the fibroblasts were treated with the normal human epidermal cell culture supernatant treated with the pyrimidine nucleotides.
Normal human fibroblasts (NHDF; Kurabo) were seeded in a 96-well plate at a density of 2.55×10^4 cells/well/100 μL and cultured at 37° C. for 24 hours. The medium was then replaced with 100 μL of media (HuMedia-KG2; Kurabo) containing CMP, 2Na at 0, 1.25, 2.5, 5 (mM) (i.e., 0, 0.0459, 0.0918, 0.184 (w/v %)) and UMP, 2Na at 0, 1.25, 2.5, 5 (MM) (i.e., 0, 0.046, 0.092, 0.184 (w/v %)), and cultured for 24 hours.
(§3) The culture supernatant of normal human fibroblasts was collected and an amount of type I collagen was quantified by ELISA. The protein amount of the culture supernatant was also measured by BCA protein assay.

Assay [2] has as its system freshly extracted human skin. The assay can be described thus: Ex vivo evaluation test using freshly extracted human skin, elastica-van Gieson staining of collagen fibers (Example 4). The conditions noted are these: CMP, 2Na 1.0, 2.0 w/v % applied from stratum corneum side, total of 72 hours. Here is the method: To evaluate the effect on actual skin with greater precision, an ex vivo evaluation test was conducted using freshly extracted human skin.
Abdominal skin tissue was used, which was taken from a patient during cosmetic surgery, after obtaining informed consent for use in research. The extracted skin was placed in a culture plate supplemented with 1.3 ml of D-MEM/Ham's F-12 medium, and conditioned overnight at 37° C. in 5% CO2. An appropriate amount of PBS (-) containing a given concentration of each sample was applied from the stratum corneum side, and further cultured for 24 hours. The treatment was continued for a total of 72 hours while replacing the sample and medium with fresh ones every 24 hours. The concentrations of CMP, 2Na in the respective samples were 0, 1.0, and 2.0 (w/v %).
After the cultured skin tissue was fixed according to a standard method, skin tissue sections were prepared, collagen fibers were stained with elastica-van Gieson stain, and observed under a microscope.

The subject of assay [3] is Normal human fibroblasts (NHDF). The assay can be described thus: Type I collagen production by normal human fibroblasts treated with normal human epidermal cell culture supernatant (K-CM, Example 3, ELISA). It counts as cell-based. The note with it: for amount of collagen in the culture supernatant of normal human fibroblasts (type I collagen): K-CM: supernatant of normal human epidermal cells treated with 1.25, 2.5, 5 mM sample for 24 hours, fibroblasts 24 hours. As to the method:
as §2
Normal human epidermal cells (NHEK; Kurabo) were seeded in a 96-well plate at a density of 2.5×10^4 cells/well and cultured at 37° C. for 24 hours. The medium was replaced with 100 μL of sample-containing medium (HuMedia-KG2; Kurabo) and cultured for 24 hours. After culturing, the culture supernatant was collected. The sample solutions used were 0, 1.25, 2.5, and 5 (mM) (i.e., 0, 0.0459, 0.0918, and 0.184 (w/v %)) of CMP, 2Na, and 0, 1.25, 2.5, and 5 (mM) (i.e., 0, 0.046, 0.092, and 0.184 (w/v %)) of UMP, 2Na.
Normal human fibroblasts (NHDF; Kurabo) were seeded in a 96-well plate at a density of 2.5×10^4 cells/well/100 μL and cultured at 37° C. for 24 hours. The medium was then replaced with 100 μL of the culture supernatant obtained in the culture supernatant acquisition step from the three-dimensional cultured epidermis as described above and cultured for 24 hours.
as §3

The test system is the same in assay [4]. The assay can be described thus: Type I collagen production by normal human fibroblasts treated with culture supernatant from three-dimensional cultured epidermis (Example 1, ELISA). It counts as cell-based. The conditions noted are these: three-dimensional cultured epidermis treated with CMP, 2Na 0.125, 0.25, 1.0, 2.0 w/v % from stratum corneum side, supernatant on fibroblasts 24 hours. Here is the method: To reproduce the phenomenon that would occur in actual epidermis, the effect of promoting collagen production for pyrimidine nucleotides was evaluated with a culture supernatant from three-dimensional cultured epidermis, and with fibroblasts.
as §1, with “The samples to be treated with UVB were irradiated with 600 mJ/cm^2 using a UVB lamp (TL20W/12RS; manufactured by PHILIPS). For both samples with and without the UVB treatment, the media were” for “The medium was”, “with” for “with a”, “fresh media,” for “fresh medium,”, “0, 0.125, 0.25, 1.0” for “0, 1.0,”, “respectively. […]” for “respectively.”
The culture supernatant from normal human fibroblasts was collected and an amount of type I collagen was quantified by ELISA. The protein amount of the culture supernatant was also measured by BCA protein assay.

Assay [5] has as its system cultured human skin fibroblasts. The conditions noted are these: uridylic acid alone, as disclosed in Patent Literature 1; cited from earlier work.

The text below walks through data of US20250302719A1, “COLLAGEN PRODUCTION PROMOTER, COSMETIC COMPOSITION OR EXTERNAL PREPARATION FOR SKIN, AND PREPARATION FOR ORAL ADMINISTRATION” (YAMASA CORPORATION, priority 2022, published 2025).

As to `Nc1ccn([C@@H]2O[C@H](COP(=O)(O)O)[C@@H](O)[C@H]2O)c(=O)n1` [CMP, 2Na, disodium cytidylate], the “expression level of COL1A1 (mRNA, relative to 0 w/v %)” value with Collagen 1A1 (COL1A1) is reported as “increased”. Further, the “amount of collagen (type I collagen)” value in assay [1] was “no increase”. Besides, the “collagen fibers in dermis (elastica-van Gieson stain)” value in assay [2] is recorded as “tended to result in denser collagen fibers”. Besides, the “effect of promoting collagen production, cytidylic acid compared with uridylic acid” value in assay [3] (Example 3) was “higher effect of promoting collagen production”. For the same compound, the “amount of collagen in the culture supernatant of normal human fibroblasts (type I collagen)” value in assay [3] is listed as “increased”. The “amount of collagen in the culture supernatant from normal human fibroblasts (type I collagen)” value in assay [4] (UVB 600 mJ/cm^2) and in assay [4] (UVB (-)) was “increased” in each case.

With `O=c1ccn([C@@H]2O[C@H](COP(=O)(O)O)[C@@H](O)[C@H]2O)c(=O)[nH]1` [UMP, 2Na, disodium uridylate], in assay [5], the “effect of promoting collagen production” value is on record as “no effect of promoting collagen production”. Further, in assay [1], the “amount of collagen (type I collagen)” value was “no increase”. Also, the “amount of collagen in the culture supernatant of normal human fibroblasts (type I collagen)” value in assay [3] is listed as “increased”.
